Experimental data as given in patent US9328386B2, “Markers for susceptibility to an inhibitor of an Src-family kinase” (Evotec (München) GmbH, priority 2011, dated 2016).

Legend:
H1666 NSCLC cell line = test: Cellular growth inhibition (CellTiter Glo viability assay); type: cell-based; conditions: Homo sapiens
H520 NSCLC cell line = test: as above; type: cell-based; conditions: Homo sapiens
PC9 NSCLC cell line = test: as above; type: cell-based; conditions: Homo sapiens
H157 NSCLC cell line = test: as above; type: cell-based; conditions: Homo sapiens
HCC4006 NSCLC cell line = test: as above; type: cell-based; conditions: Homo sapiens
H2009 NSCLC cell line = test: as above; type: cell-based; conditions: Homo sapiens
HCC78 NSCLC cell line = test: as above; type: cell-based; conditions: Homo sapiens
HCC2279 NSCLC cell line = test: as above; type: cell-based; conditions: Homo sapiens
H2077 NSCLC cell line = test: as above; type: cell-based; conditions: Homo sapiens
H322M NSCLC cell line = test: as above; type: cell-based; conditions: Homo sapiens, NCI-H322M
H460 NSCLC cell line = test: as above; type: cell-based; conditions: Homo sapiens
H1648 NSCLC cell line = test: as above; type: cell-based; conditions: Homo sapiens
H1395 NSCLC cell line = test: as above; type: cell-based; conditions: Homo sapiens
HCC366 NSCLC cell line = test: as above; type: cell-based; conditions: Homo sapiens
H2172 NSCLC cell line = test: as above; type: cell-based; conditions: Homo sapiens
H2030 NSCLC cell line = test: as above; type: cell-based; conditions: Homo sapiens
HCC827 NSCLC cell line = test: cells; conditions: Homo sapiens
Calu6 NSCLC cell line = test: Cellular growth inhibition (CellTiter Glo viability assay); type: cell-based; conditions: Homo sapiens
LouNH91 NSCLC cell line = test: as above; type: cell-based; conditions: Homo sapiens
[1] = read-out: Sensitivity Bosutinib

Q: How did the GI50 (H1666 NSCLC cell line; NCI-H1666, 96 h) turn out when `COc1cc(Nc2c(C#N)cnc3cc(OCCCN4CCN(C)CC4)c(OC)cc23)c(Cl)cc1Cl` [bosutinib, 4-(2,4-dichloro-5-methoxyphenylamino)-6-methoxy-7-(3-(4-methylpiperazin-1-yl)propoxy)quinoline-3-carbonitrile] was run?
A: 1.08 µM

Q: What about the IC50 (H1666 NSCLC cell line; NCI-H1666, read-out: Sensitivity Bosutinib) of the same compound?
A: < 1.5 µM

Q: And the GI50 (H520 NSCLC cell line; NCI-H520, 96 h)?
A: 2.64 µM

Q: What about the IC50 (H520 NSCLC cell line; NCI-H520, read-out: Sensitivity Bosutinib) of the same compound?
A: > 1.5 µM

Q: What about the GI50 (PC9 NSCLC cell line; 96 h) of the same compound?
A: 0.234 µM

Q: And the IC50 (PC9 NSCLC cell line; PC-9, read-out: Sensitivity Bosutinib)?
A: < 1.5 µM

Q: And the GI50 (H157 NSCLC cell line; NCI-H157, 96 h)?
A: 1.81 µM

Q: What about the IC50 (H157 NSCLC cell line; NCI-H157, read-out: Sensitivity Bosutinib) of the same compound?
A: > 1.5 µM

Q: And the GI50 (HCC4006 NSCLC cell line; HCC4006, 96 h)?
A: 0.12 µM

Q: What about the IC50 (HCC4006 NSCLC cell line; HCC4006, read-out: Sensitivity Bosutinib) of the same compound?
A: < 1.5 µM

Q: What about the GI50 (H2009 NSCLC cell line; NCI-H2009, 96 h) of the same compound?
A: 2.33 µM

Q: And the IC50 (H2009 NSCLC cell line; NCI-H2009, read-out: Sensitivity Bosutinib)?
A: > 1.5 µM

Q: What about the GI50 (HCC78 NSCLC cell line; HCC78, 96 h) of the same compound?
A: 3.04 µM

Q: And the IC50 (HCC78 NSCLC cell line; HCC78, read-out: Sensitivity Bosutinib)?
A: > 1.5 µM

Q: What about the GI50 (HCC2279 NSCLC cell line; 96 h) of the same compound?
A: 3.25 µM

Q: What about the IC50 (HCC2279 NSCLC cell line; [1]) of the same compound?
A: > 1.5 µM

Q: And the GI50 (H2077 NSCLC cell line; 96 h)?
A: 3.79 µM

Q: What about the IC50 (H2077 NSCLC cell line; [1]) of the same compound?
A: > 1.5 µM

Q: What about the GI50 (H322M NSCLC cell line; 96 h) of the same compound?
A: 0.528 µM

Q: And the IC50 (H322M NSCLC cell line; [1])?
A: < 1.5 µM

Q: What about the GI50 (H460 NSCLC cell line; NCI-H460, 96 h) of the same compound?
A: 1.37 µM

Q: And the IC50 (H460 NSCLC cell line; NCI-H460, read-out: Sensitivity Bosutinib)?
A: < 1.5 µM

Q: What about the GI50 (H1648 NSCLC cell line; NCI-H1648, 96 h) of the same compound?
A: 3.72 µM

Q: What about the IC50 (H1648 NSCLC cell line; NCI-H1648, read-out: Sensitivity Bosutinib) of the same compound?
A: > 1.5 µM

Q: And the GI50 (H1395 NSCLC cell line; NCI-H1395, 96 h)?
A: 4.72 µM

Q: What about the IC50 (H1395 NSCLC cell line; NCI-H1395, read-out: Sensitivity Bosutinib) of the same compound?
A: > 1.5 µM

Q: And the GI50 (HCC366 NSCLC cell line; HCC366, 96 h)?
A: 1.27 µM

Q: And the IC50 (HCC366 NSCLC cell line; HCC366, read-out: Sensitivity Bosutinib)?
A: < 1.5 µM

Q: What about the GI50 (H2172 NSCLC cell line; NCI-H2172, 96 h) of the same compound?
A: 2.59 µM

Q: And the IC50 (H2172 NSCLC cell line; NCI-H2172, read-out: Sensitivity Bosutinib)?
A: > 1.5 µM

Q: And the GI50 (H2030 NSCLC cell line; NCI-H2030, 96 h)?
A: 0.896 µM

Q: And the IC50 (H2030 NSCLC cell line; NCI-H2030, read-out: Sensitivity Bosutinib)?
A: < 1.5 µM

Q: What about the GI50 (HCC827 NSCLC cell line; HCC827, 96 h) of the same compound?
A: 0.141 µM

Q: What about the IC50 (HCC827 NSCLC cell line; HCC827, read-out: Sensitivity Bosutinib) of the same compound?
A: < 1.5 µM

Q: And the GI50 (Calu6 NSCLC cell line; Calu-6, 96 h)?
A: 2.13 µM

Q: And the IC50 (Calu6 NSCLC cell line; Calu-6, read-out: Sensitivity Bosutinib)?
A: > 1.5 µM

Q: What about the GI50 (LouNH91 NSCLC cell line; LOU-NH91, 96 h) of the same compound?
A: 0.186 µM

Q: What about the IC50 (LouNH91 NSCLC cell line; LOU-NH91, read-out: Sensitivity Bosutinib) of the same compound?
A: < 1.5 µM
